Measured values: ChEMBL document CHEMBL5653615 (J Biol Chem, 2013)
Values belong to the compound of their own block, whether it stands above or below them. Active and inactive are the calls of the source. The calls are words filed in the database; no cut-off is given here.

Assays:
[1] = molecular target: Tyrosine-protein kinase Srms (Homo sapiens) (UniProt Q9H3Y6); experiment: Inhibition of human SRMS at 18.6 nM by HotSpot assay relative to control
[2] = molecular target: Tyrosine-protein kinase Lck (Homo sapiens) (UniProt P06239); experiment: Inhibition of human LCK at 18.6 nM by HotSpot assay relative to control
[3] = molecular target: T1, Ephrin type-B receptor 3 (Homo sapiens) (UniProt P54753); experiment: Inhibition of human EPHB3 at 18.6 nM by HotSpot assay relative to control
T1 sequence (whole entry): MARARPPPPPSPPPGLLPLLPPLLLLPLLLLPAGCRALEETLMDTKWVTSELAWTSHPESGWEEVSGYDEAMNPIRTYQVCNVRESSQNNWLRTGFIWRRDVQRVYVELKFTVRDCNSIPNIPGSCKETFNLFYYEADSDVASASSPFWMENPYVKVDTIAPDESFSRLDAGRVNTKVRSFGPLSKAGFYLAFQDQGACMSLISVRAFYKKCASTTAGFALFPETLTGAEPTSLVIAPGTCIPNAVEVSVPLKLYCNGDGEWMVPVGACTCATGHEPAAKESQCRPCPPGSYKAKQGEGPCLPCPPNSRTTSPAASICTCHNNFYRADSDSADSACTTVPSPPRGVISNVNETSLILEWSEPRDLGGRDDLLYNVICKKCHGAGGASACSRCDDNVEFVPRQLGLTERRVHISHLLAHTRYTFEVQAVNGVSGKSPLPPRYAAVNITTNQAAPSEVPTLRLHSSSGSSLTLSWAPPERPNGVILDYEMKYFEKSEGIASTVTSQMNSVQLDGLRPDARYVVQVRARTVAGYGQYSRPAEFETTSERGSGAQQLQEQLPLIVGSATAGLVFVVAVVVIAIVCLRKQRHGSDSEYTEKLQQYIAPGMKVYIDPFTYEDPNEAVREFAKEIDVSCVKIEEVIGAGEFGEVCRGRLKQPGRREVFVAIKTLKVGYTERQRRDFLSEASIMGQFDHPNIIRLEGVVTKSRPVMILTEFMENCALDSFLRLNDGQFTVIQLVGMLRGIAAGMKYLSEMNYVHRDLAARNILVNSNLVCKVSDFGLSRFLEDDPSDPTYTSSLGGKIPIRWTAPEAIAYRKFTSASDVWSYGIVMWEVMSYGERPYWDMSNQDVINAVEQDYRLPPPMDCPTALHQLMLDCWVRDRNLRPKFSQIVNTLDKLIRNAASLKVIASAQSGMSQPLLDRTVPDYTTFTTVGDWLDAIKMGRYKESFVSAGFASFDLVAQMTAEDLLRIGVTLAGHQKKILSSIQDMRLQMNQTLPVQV

[4] = molecular target: Tyrosine-protein kinase ABL1 (Homo sapiens) (UniProt P00519); experiment: Inhibition of human ABL1 at 18.6 nM by HotSpot assay relative to control
[5] = molecular target: T2, Serine/threonine-protein kinase D2 (Homo sapiens) (UniProt Q9BZL6); experiment: Inhibition of human PRKD2 at 18.6 nM by HotSpot assay relative to control
T2 sequence (whole entry): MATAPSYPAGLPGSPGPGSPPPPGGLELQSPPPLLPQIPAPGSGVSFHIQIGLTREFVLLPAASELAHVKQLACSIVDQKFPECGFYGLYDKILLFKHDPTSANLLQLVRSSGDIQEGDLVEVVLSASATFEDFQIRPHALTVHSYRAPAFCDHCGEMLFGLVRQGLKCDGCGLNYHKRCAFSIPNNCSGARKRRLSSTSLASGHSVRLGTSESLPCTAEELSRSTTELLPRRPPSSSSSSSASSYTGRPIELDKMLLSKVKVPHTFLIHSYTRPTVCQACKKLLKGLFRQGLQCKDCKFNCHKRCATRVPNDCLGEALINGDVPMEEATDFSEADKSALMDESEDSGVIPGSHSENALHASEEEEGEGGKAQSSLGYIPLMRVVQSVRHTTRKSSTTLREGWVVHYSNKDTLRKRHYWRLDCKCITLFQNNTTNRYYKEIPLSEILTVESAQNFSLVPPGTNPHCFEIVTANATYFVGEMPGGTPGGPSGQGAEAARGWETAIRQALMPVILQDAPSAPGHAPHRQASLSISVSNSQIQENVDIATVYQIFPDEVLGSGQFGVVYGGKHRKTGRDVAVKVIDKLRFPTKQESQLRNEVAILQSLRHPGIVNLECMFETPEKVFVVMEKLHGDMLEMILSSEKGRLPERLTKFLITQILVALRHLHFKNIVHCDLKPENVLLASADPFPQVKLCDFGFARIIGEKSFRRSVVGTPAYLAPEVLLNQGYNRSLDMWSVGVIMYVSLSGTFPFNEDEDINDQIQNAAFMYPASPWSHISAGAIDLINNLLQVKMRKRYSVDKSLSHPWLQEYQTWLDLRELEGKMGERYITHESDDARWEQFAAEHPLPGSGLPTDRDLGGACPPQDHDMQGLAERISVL

[6] = molecular target: Homeodomain-interacting protein kinase 2 (Homo sapiens) (UniProt Q9H2X6); experiment: Inhibition of human HIPK2 at 1.82 nM by HotSpot assay relative to control
[7] = molecular target: T3, Lymphokine-activated killer T-cell-originated protein kinase (Homo sapiens) (UniProt Q96KB5); experiment: Inhibition of human TOPK at 1.82 nM by HotSpot assay relative to control
T3 sequence (whole entry): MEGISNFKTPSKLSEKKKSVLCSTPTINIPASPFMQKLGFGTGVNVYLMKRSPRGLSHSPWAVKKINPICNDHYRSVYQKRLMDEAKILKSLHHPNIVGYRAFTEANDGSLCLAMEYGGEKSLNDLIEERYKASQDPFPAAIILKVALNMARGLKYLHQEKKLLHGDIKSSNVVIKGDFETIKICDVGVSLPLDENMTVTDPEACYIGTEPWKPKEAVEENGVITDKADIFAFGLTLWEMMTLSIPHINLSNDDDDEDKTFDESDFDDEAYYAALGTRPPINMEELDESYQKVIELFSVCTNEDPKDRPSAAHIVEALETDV

[8] = molecular target: RAC-alpha serine/threonine-protein kinase (Homo sapiens) (UniProt P31749); experiment: Inhibition of human AKT1 at 1.82 nM by HotSpot assay relative to control
[9] = molecular target: Serine/threonine-protein kinase N2 (Homo sapiens) (UniProt Q16513); experiment: Inhibition of human PRK2 at 1.82 nM by HotSpot assay relative to control
[10] = Inhibition of tri-phosphorylated human Insulin receptor (978 to 1283 residues) C981S mutant kinase domain expressed in baculovirus infected Sf9 cells incubated for 1 hr by [gamma-33P]ATP assay

Sequence of Tyrosine-protein kinase Srms (Homo sapiens) (Q9H3Y6 whole entry): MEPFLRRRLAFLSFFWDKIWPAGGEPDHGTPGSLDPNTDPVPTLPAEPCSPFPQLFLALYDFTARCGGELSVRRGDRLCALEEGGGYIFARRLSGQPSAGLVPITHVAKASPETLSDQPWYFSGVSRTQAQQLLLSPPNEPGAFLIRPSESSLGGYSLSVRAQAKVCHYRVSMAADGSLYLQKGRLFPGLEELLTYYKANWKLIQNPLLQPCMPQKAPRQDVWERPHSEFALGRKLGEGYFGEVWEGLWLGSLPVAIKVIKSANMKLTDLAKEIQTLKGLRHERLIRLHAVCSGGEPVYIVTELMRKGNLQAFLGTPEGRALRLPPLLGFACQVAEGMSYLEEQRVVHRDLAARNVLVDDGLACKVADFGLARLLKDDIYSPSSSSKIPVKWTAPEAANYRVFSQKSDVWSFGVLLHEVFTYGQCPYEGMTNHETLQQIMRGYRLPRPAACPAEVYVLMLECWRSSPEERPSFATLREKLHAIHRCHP
Sequence of RAC-alpha serine/threonine-protein kinase (Homo sapiens) (P31749 whole entry): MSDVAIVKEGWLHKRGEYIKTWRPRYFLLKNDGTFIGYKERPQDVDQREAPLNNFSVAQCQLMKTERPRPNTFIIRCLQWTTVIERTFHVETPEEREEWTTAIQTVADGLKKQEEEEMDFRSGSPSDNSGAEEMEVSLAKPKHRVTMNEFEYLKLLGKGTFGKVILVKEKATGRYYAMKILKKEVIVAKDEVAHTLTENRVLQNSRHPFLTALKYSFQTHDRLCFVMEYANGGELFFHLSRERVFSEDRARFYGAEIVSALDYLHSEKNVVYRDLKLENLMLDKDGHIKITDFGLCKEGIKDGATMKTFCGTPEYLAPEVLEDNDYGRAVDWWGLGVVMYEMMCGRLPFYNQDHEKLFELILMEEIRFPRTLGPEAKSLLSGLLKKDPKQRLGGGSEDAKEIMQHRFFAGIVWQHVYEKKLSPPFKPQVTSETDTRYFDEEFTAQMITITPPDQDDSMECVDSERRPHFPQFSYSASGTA
Sequence of Tyrosine-protein kinase ABL1 (Homo sapiens) (P00519 whole entry): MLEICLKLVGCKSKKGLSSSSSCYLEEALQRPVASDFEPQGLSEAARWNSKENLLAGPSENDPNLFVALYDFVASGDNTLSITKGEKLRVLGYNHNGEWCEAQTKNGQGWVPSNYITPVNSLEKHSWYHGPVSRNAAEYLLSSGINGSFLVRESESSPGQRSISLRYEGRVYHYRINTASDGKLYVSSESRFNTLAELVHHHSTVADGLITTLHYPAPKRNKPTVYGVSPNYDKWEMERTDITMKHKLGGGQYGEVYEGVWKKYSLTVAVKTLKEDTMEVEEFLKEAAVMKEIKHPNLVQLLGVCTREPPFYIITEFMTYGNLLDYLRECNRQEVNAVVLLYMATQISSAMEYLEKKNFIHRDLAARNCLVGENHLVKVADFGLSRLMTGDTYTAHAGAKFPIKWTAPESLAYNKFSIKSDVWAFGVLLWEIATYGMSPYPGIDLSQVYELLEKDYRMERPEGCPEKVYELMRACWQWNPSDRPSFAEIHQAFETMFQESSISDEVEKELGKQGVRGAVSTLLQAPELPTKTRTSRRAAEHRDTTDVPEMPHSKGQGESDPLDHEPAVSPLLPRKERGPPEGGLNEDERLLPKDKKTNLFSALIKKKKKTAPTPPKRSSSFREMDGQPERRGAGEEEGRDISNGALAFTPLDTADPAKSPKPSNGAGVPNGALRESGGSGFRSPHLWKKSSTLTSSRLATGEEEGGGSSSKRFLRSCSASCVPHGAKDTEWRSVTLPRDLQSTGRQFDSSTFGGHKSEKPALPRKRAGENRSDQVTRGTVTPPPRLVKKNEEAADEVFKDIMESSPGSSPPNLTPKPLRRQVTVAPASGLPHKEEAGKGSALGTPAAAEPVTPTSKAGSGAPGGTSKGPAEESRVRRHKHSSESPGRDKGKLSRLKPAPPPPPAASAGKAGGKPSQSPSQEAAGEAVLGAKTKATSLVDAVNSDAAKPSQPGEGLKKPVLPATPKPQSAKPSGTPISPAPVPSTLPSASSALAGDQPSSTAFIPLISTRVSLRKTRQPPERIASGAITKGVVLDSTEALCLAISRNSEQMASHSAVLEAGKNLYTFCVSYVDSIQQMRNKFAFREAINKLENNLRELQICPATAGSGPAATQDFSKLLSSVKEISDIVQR
Sequence of Tyrosine-protein kinase Lck (Homo sapiens) (P06239 2-509 limits assumed): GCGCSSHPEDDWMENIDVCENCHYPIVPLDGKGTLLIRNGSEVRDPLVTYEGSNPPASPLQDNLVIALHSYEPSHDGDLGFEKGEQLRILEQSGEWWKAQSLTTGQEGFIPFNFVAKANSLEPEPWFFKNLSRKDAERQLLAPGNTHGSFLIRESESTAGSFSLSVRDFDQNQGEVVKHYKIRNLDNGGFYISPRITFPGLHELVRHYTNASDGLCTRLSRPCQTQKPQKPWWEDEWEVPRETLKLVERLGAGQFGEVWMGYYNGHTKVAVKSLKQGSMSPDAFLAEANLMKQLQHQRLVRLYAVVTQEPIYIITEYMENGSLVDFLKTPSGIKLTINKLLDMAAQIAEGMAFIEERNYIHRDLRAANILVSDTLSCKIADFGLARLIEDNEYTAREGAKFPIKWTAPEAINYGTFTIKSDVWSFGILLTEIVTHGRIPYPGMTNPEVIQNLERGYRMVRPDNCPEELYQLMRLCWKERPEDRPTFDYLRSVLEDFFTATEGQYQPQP
Sequence of Serine/threonine-protein kinase N2 (Homo sapiens) (Q16513 whole entry, looked up, the tested form may be a part): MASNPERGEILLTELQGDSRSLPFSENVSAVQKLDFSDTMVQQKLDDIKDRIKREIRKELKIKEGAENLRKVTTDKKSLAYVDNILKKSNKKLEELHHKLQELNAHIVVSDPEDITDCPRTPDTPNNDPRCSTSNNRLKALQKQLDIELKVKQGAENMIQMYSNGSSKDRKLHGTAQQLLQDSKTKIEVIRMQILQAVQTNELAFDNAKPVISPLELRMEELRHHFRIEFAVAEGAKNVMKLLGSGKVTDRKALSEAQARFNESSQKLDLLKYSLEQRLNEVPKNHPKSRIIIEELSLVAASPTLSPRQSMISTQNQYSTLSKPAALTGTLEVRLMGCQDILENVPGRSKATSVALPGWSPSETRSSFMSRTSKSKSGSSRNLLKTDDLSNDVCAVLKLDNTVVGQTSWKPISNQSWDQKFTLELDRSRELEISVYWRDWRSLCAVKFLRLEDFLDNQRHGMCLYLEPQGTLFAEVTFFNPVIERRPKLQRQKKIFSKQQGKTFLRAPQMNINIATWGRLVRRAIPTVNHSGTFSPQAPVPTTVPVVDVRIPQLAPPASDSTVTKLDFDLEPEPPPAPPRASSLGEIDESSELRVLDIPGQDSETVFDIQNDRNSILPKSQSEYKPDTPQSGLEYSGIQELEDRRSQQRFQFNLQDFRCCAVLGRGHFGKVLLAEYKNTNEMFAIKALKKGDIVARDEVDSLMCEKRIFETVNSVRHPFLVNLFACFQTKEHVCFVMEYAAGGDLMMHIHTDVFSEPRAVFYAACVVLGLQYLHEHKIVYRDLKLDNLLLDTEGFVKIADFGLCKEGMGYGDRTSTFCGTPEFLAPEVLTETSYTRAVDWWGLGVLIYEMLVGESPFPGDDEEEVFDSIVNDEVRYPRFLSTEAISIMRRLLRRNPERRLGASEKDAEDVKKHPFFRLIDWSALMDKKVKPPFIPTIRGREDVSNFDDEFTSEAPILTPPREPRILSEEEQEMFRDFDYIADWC
Sequence of Homeodomain-interacting protein kinase 2 (Homo sapiens) (Q9H2X6 whole entry, looked up): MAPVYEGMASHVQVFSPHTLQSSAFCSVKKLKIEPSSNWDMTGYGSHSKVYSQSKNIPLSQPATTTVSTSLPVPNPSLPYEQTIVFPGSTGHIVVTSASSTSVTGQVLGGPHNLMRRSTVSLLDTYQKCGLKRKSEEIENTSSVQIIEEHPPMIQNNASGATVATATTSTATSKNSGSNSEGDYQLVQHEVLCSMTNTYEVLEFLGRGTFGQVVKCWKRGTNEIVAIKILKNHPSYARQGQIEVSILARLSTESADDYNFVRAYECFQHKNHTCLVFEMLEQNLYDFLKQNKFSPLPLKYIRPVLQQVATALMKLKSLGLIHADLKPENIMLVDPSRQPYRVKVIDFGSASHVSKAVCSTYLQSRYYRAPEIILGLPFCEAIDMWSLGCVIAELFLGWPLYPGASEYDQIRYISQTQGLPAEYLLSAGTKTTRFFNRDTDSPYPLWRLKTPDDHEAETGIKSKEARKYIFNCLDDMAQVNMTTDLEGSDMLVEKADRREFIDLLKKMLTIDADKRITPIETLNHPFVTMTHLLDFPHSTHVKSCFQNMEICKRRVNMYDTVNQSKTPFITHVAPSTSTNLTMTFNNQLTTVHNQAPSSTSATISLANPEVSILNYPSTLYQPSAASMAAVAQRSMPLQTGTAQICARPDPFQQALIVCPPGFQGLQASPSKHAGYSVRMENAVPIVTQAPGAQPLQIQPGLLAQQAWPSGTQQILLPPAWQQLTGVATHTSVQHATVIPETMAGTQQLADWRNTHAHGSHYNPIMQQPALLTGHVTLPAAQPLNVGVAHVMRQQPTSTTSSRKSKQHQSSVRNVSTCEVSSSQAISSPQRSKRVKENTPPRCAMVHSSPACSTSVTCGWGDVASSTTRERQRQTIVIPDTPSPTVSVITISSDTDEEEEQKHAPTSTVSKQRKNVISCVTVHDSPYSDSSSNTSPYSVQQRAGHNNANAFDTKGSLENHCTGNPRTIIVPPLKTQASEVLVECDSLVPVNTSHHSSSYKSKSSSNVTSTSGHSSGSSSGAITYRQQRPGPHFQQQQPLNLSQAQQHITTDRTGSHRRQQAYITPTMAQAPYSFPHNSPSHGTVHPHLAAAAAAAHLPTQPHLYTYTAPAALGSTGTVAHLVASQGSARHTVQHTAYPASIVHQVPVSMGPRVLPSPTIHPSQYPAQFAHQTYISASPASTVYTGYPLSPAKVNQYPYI

inhibition [1]: -0.53%
inhibition [2]: 6.33%
inhibition [3]: -2.53%
inhibition [4]: 9.07%
inhibition [5]: 7.59%
SMILES: C[C@]1(O)C[C@@H](c2nc(-c3ccc4ccc(-c5ccccc5)nc4c3)c3c(N)nccn32)C1

inhibition [6]: 3.96%
inhibition [8]: 1.89%
inhibition [9]: -0.34%
SMILES: C[C@@]1(C(=O)Nc2ccc(F)nc2)CCCN1c1nc(Nc2cc(C3CC3)n[nH]2)c2cccn2n1
inhibition [7]: 8.44%

SMILES: Oc1n[nH]c2nnc(-c3c(-c4ccccc4)nn4ccccc34)cc12
inhibition [10]: inactive
